According to patent US8663669B2, “Pesticide treatment of soils or substrates with sulphur compounds” (Arkema France, priority 2002, dated 2014):

Test system: Rhizoctonia solani
Test: Fungicidal efficacy by gassing, colonized barley grains
Format: cell-based
Parameters: Vitality score Nm (over 11 days): scale not given here; Reduction in viability RV / Reduction in vitality score RNm: unit not given here
Settings: for Reduction in viability RV / Reduction in vitality score RNm: compared with the control
Protocol: These four organisms are the following:
Rhizoctonia solani: a very important group of polyphagous pathogens in the genus Rhizoctonia and which attack very many market garden crops including sweet pepper and lettuce.
• Sclerotinia sclerotiorum: sclerotia • Sclerotium rolfsii: sclerotia • Rhizoctonia solani: colonized barley grains (mycelium and sclerotia) • Phytophthora cactorum: colonized millet grains (mycelium, sporangia and oospores) Preparation of the Fungi (24 h Before the Gassing Operation) 1. Preparation of the sclerotia of Sclerotinia sclerotiorum and of Sclerotium rolfsii: The fungi are cultured on malt agar medium until the sclerotia are obtained. The sclerotia are collected in a sterile manner and stored dry in empty Petri dishes until they are used. The sclerotia used for the trial are over 3 months old and are perfectly dormant. 2. Preparation of Phytophthora cactorum and of Rhizoctonia solani: The millet and barley used for the multiplication of the two fungi are moistened with ultrapure water by immersing for 24 hours. The grains are then slightly drained and then distributed into flasks and autoclaved (3 autoclavings at 110° C. for 20 minutes, 3 times at 24 hour intervals). Fragments of fungal culture are introduced into the flasks which are then incubated at 22° C.±2° C. (white light 18 h) until homogeneous colonization is obtained. The grains are then removed from the flasks in a sterile manner, dried in the sterile stream of a safety cabinet and then stored in the dry state until they are used. Conditions for Gassing and for Desorption
All the batches of fungi to be treated are placed for a few hours at the trial temperature (20° C.). Between 35 and 300 units of fungi or “propagules” (grains or sclerotia) are subjected to gassing during each trial.
Each fumigation chamber comprising to one or more species of fungi corresponds to a glass round-bottomed flask which is impervious to the gas and has a volume of 11 litres. Each round-bottomed flask is equipped with branch connections, one at the bottom for introducing the liquid DMDS, one at the top for collecting the air sample with a syringe.
Before introducing the gas, a partial vacuum (−500 mbar) is established in the round-bottomed flask with a vacuum pump. This makes it possible, on the one hand, to avoid the phenomenon of excess pressure due to the expansibility of DMDS in the round-bottomed flask and, on the other hand, to promote better homogeneity of the air-gas mixture in the first few seconds which follow injection. The DMDS (weighed accurately to the mg) is injected with a syringe, in liquid form, through the bottom branch connection, that is to say under the screen placed at half height of the round-bottomed flask and supporting the batches of fungi. After introducing the product, the internal pressure of the round-bottomed flask is re-established at atmospheric pressure. A magnetic stirrer operates during the entire duration of the treatment in order to properly homogenize the air-gas mixture.
At the end of the gassing, the cover for the round-bottomed flask is removed. One minute after this operation, the batches of fungi gassed are taken out and left in the open air for 15 minutes for desorption of the DMDS. They are then transferred into a Petri dish, the latter remaining open for 5 minutes to allow perfect desorption of the gas. […]

[1] = CT 1 050 g·h/m^3 (C 15.91 g/m^3, T 66 h)
[2] = CT 1 402 g·h/m^3 (C 21.24 g/m^3, T 66 h)
[3] = CT 1 450 g·h/m^3 (C 30.96 g/m^3, T 48 h)
[4] = CT 1 899 g·h/m^3 (C 28.77 g/m^3, T 66 h)
[5] = CT 1 981 g·h/m^3 (C 30.02 g/m^3, T 66 h)
[6] = CT 2 460 g·h/m^3 (C 51.25 g/m^3, T 48 h)
[7] = CT 2 471 g·h/m^3 (C 37.44 g/m^3, T 66 h)
[8] = CT 2 837 g·h/m^3 (C 42.98 g/m^3, T 66 h)
[9] = CT 2 974 g·h/m^3 (C 45.06 g/m^3, T 66 h)
[10] = CT 3 169 g·h/m^3 (C 48.02 g/m^3, T 66 h)
[11] = CT 3 467 g·h/m^3 (C 52.53 g/m^3, T 66 h)
[12] = CT 419 g·h/m^3 (C 17.46 g/m^3, T 24 h)
[13] = CT 625 g·h/m^3 (C 26.04 g/m^3, T 24 h)
[14] = CT 703 g·h/m^3 (C 29.29 g/m^3, T 24 h)
[15] = CT 907 g·h/m^3 (C 37.79 g/m^3, T 24 h)

## CSSC [DMDS, dimethyl disulphide]
[1]
  Viability V: 89.2%
  Vitality score Nm (over 11 days): 7.0
  Reduction in viability RV: 10.8
  Reduction in vitality score RNm: 22.2
[2]
  Viability V: 96.9%
  Vitality score Nm (over 11 days): 7.6
  Reduction in viability RV: 3.1
  Reduction in vitality score RNm: 15.0
[3]
  Viability V: 98.5%
  Vitality score Nm (over 11 days): 4.4
  Reduction in viability RV: 1.5
  Reduction in vitality score RNm: 51.3
[4]
  Viability V: 84.3%
  Vitality score Nm (over 11 days): 6.0
  Reduction in viability RV: 15.7
  Reduction in vitality score RNm: 33.2
[5]
  Viability V: 94.7%
  Vitality score Nm (over 11 days): 7.4
  Reduction in viability RV: 5.3
  Reduction in vitality score RNm: 17.2
[6]
  Viability V: 11.0%
  Vitality score Nm (over 11 days): 0.3
  Reduction in viability RV: 89.0
  Reduction in vitality score RNm: 96.2
[7]
  Viability V: 24.1%
  Vitality score Nm (over 11 days): 0.6
  Reduction in viability RV: 75.9
  Reduction in vitality score RNm: 92.0
[8]
  Viability V: 2.2%
  Vitality score Nm (over 11 days): 0.1
  Reduction in viability RV: 97.8
  Reduction in vitality score RNm: 98.4
[9]
  Viability V: 9.4%
  Vitality score Nm (over 11 days): 0.1
  Reduction in viability RV: 90.6
  Reduction in vitality score RNm: 98.4
[10]
  Viability V: 1.2%
  Vitality score Nm (over 11 days): 0.05
  Reduction in viability RV: 98.8
  Reduction in vitality score RNm: 99.3
[11]
  Viability V: 0%
  Vitality score Nm (over 11 days): 0
  Reduction in viability RV: 100
  Reduction in vitality score RNm: 100
[12]
  Viability V: 100%
  Vitality score Nm (over 11 days): 9.0
  Reduction in viability RV: 0
  Reduction in vitality score RNm: 0
[13]
  Viability V: 100%
  Vitality score Nm (over 11 days): 8.7
  Reduction in viability RV: 0
  Reduction in vitality score RNm: 3.1
[14]
  Viability V: 100%
  Vitality score Nm (over 11 days): 8.3
  Reduction in viability RV: 0
  Reduction in vitality score RNm: 7.3
[15]
  Viability V: 100%
  Vitality score Nm (over 11 days): 7.1
  Reduction in viability RV: 0
  Reduction in vitality score RNm: 21.6
